This passage reports melting point results from a melting point compilation (Tetko et al.; mined from patent text by program, amines drawn as free bases though some values may be those of a salt).

The structures appear in SMILES notation. Some results are limits rather than exact numbers.

Turning to `CCOC(=O)c1c(S(=O)(=O)Cl)nn2c(C)cc(C)nc12`, the melting point (commonly the temperature of the solid-liquid transition) was 128 to 130 °C.
The value for `CSc1ccc(-c2c(C#N)cnn2-c2ccc(F)cc2)cc1` was 122 to 123 °C; that for `CC(=O)Nc1nc2c(nc(NC(C)=O)n2Cc2cccs2)c(=O)[nH]1` was 243 to 244 °C.
Compound `CNC(=NC#N)NCCSCc1noc(NC(=N)N)n1` returned a melting point of 185 to 188 °C.
With `O=C(O)c1ccccc1C(=O)N1Cc2ccccc2Cc2ccccc21`, the melting point is 220 to 225 °C.
As for `CCOC(=O)CC(=O)CC(c1ccccc1)c1ccc(OC)c(OC2CCCC2)c1` (centres undefined), the melting point lay in the range of 56 to 58 °C.
For the compound `O=C(NCCO)c1ccnc(-c2cccc3cc(Cc4cc(F)cc(Cl)c4)sc23)c1`, the melting point lay in the range of 172 to 173 °C.
On to `CCN(CC)CC#CC(=O)Nc1ccc2ncc(C#N)c(Nc3ccc(F)c(Cl)c3)c2c1`, for which the melting point lay in the range of 117 to 120 °C.
The compound `CNC(=O)C1CCCc2c1c1cc(OC)ccc1n2Cc1ccccc1` (centres undefined) yielded a melting point of 259 to 261 °C.
In turn, `O=C1CCCCC1c1cccnc1` (centres undefined) came in with a melting point of 78 to 80 °C.
With `Cc1[nH]c(=O)c(C#N)c2c1CC(c1ccccn1)CC2` (centres undefined), the melting point was > 300 °C.
On to `COc1ccc(C(=O)N2c3ccccc3C(N3CCCc4cc(C)ccc43)CC2C)cc1OC` (centres undefined), for which the melting point was 139 to 140 °C.
`Cn1c(=O)c2c(ncn2COC(=O)C(C)(C)C)n(C)c1=O`: the melting point is 108 to 110 °C.
The value for `COC1C2=C3C(=CN1OC)OCCC3CC(C(N)=O)C2` (centres undefined) was 224 to 226 °C; that for `COc1cc2cc(C)c(CO)c(-c3ccnc(Br)c3)c2cc1OC` was 106 to 108 °C; that for `CC1(C)CCC(Cc2ccc(Cl)cc2)C1(O)Cn1ccnc1` (centres undefined) was 130 to 132 °C.
For the compound `CCC1Cc2cc(OCC(=O)O)c(Cl)c(Cl)c2C1=O` (centres undefined), the melting point was 171 to 172 °C.
`CCCn1cc(C(N)=O)c(N)n1` showed a melting point of 160 to 163 °C.
`O=C(Nc1c(C(O)(C(F)(F)F)C(F)(F)F)ccc2ccccc12)c1ccno1` showed a melting point of 162 to 164 °C.
`CCOC(=O)N1C=CC(c2c(-c3ccccc3)nn3ccccc23)C=N1` (centres undefined) registered a melting point of 173 to 174 °C.
The value for `COc1cc(OC)nc(CC(=O)O)n1` was 175 to 177 °C; that for `CC1(C(=O)c2c[nH]c3ncc(Br)nc23)CCCCCC1` was 198 °C; that for `Cc1cc(C)cc(NC(=O)NC2N=C(c3ccccc3)c3ccccc3N(C)C2=O)c1` (centres undefined) was 267 to 269 °C.
Take `COc1cc2nc(N3CCN(c4nc5ccccc5s4)CC3)nc(N)c2cc1OC`: the melting point was in the range of 242 to 245 °C.
With `O=C(O)c1n[nH]c2cc(F)ccc12`, the melting point is > 290 °C.
Compound `CCOC(=O)C(CC)C(O)(c1ccccc1)c1ccc(O)cc1` (centres undefined) returned a melting point of 46 to 53 °C.
The compound `O=C(Nc1ccc(Oc2ccnc(NCC3CC3)n2)c2ccccc12)c1cc(F)cc(N2CCOCC2)c1` returned a melting point of 116 to 117 °C.
The result for `C[C@H](C(=O)O)c1ccc2cc(OCCCCCCc3cccc(OCc4ccccc4)c3OCc3ccccc3)ccc2c1` reads 66 to 70 °C; that for `CCc1ccc(-c2nn(C)c(=O)c3ccccc23)c(CC)c1`, 94.5 to 96.5 °C; that for `COc1ccc(OC)c(Cc2n[nH]c3c2c(=O)n(-c2ccccc2)c2ncccc32)c1`, 248 to 250 °C.
`O=c1ccc2cn(C3OC(CO)C(O)C3O)c(=O)[nH]c-2n1` (centres undefined) registered a melting point of 189 to 190 °C.
With `CC(C)(C)c1cc(OCCCCc2nnn[nH]2)cc(C(C)(C)C)c1`, the melting point was in the range of 140 to 141 °C.
`CCC(CC)c1ccc(Cl)c2nc3n(c12)CCCCN3c1ccc(OC(F)(F)F)cc1Br` yielded a melting point of 114 to 117 °C.
Consider `C#CCNC(=O)N1CC(c2ccc(Cl)c(Cl)c2)C1`, for which the melting point fell in the range of 106 to 108 °C.
In turn, `O=C(CCCN1CCC(O)CC1)c1ccccc1` returned a melting point of 101 to 102 °C.
As for `COC(=O)C(C(=O)OC)c1ccc(Br)cc1[N+](=O)[O-]`, the melting point is 86 to 88 °C.
Regarding `CCOC(=O)c1cc(Oc2ccc3c(C(=O)O)cccc3c2)ncn1`, the melting point fell in the range of 211 to 212 °C.
The result for `N#Cc1c2cccccc-2n(CC(=O)O)c1=O` reads 294 to 295 °C; that for `CC(=O)c1cc(O)cc2cc(-c3ccc(O)cc3)oc12`, 274 to 276 °C.
The result for `Nc1ccc(CCC(=O)N(c2ccccc2)c2ccccc2)cc1[N+](=O)[O-]` reads 189 to 190 °C; that for `COc1ccc(C(=CC#N)c2cccc(N)c2)cc1OC`, 100 to 101 °C; that for `CC1(C)OCCN1C(=O)C=Cc1ccc(F)cc1`, 106 to 108 °C.
The value for `O=C(c1ccc(Cl)cc1)C(Br)c1ccc(Cl)cc1` (centres undefined) was 81.5 to 83 °C.
With `Cc1nn(-c2ccccn2)c2nc3cc(F)c(F)cc3c(Cl)c12`, the melting point was in the range of 175 to 176 °C.
On to `NS(=O)(=O)c1cc2nc(O)c(O)nc2c2ccccc12`, for which the melting point is > 300 °C.
The value for `c1ccc2[nH]c(-c3ccsc3)cc2c1` was 212 to 214 °C; that for `O=C(O)CCCCNC(=O)c1ccc(Cl)cc1O` was 140 to 141 °C.
`CC(C)(C)c1cc(-c2nn(CCN3CCCC3=O)c3ncccc23)cc(C(C)(C)C)c1O` registered a melting point of 148 to 150 °C.
Compound `C=C1CCC23OC2(C1)CC(C)C1C2CCC(O)C2(C)CCC13` (centres undefined) gave a melting point of 125 °C.
With `CCNCC1CCN(c2c(F)cc3c(=O)c(C(=O)O)cn(C4CCCC4)c3c2F)C1` (centres undefined), the melting point fell in the range of 214 to 217 °C.
The result for `O=C(O)CSc1nccc(-n2cc(C3c4ccccc4C=Cc4ccccc43)c(=S)[nH]c2=O)n1` reads 190 °C.
Regarding `COc1cc(Nc2nccc(-c3ccc(NC(=O)OC(C)(C)C)cc3)n2)cc(OC)c1OC`, the melting point fell in the range of 158 to 159 °C.
The compound `OC1CC2(CCNC2)c2ccc(F)cc21` (centres undefined) showed a melting point of 162 to 164 °C.
`CC(=O)CN1C(=O)C(NC(=O)Nc2cccc(-c3nnn[nH]3)c2)N=C(c2ccccc2F)c2cccc(C)c21` (centres undefined) came in with a melting point of 174 to 190 °C.
`FC(F)(F)c1cccnc1OCc1ccnc2cc(Cl)ccc12` came in with a melting point of 125 to 127 °C.
Turning to `O=C(O)Cc1ccc(-n2cnc3cnc4ccccc4c32)cc1`, the melting point is 236 to 240 °C.
As to `Cc1sc2c(Br)c3ccccc3c(-c3cc(Br)c(O)c(NC(=O)OC(C)(C)C)c3)c2c1C`, the melting point lay within 205 to 207 °C.
For the compound `CC(=O)Nc1cccc(C(C)(C)O)c1CO`, the melting point was 138 °C.
In the case of `CC(C)(C)c1cc(I)c2c(c1)CNS(=O)(=O)O2`, the melting point was 154 to 155 °C.
For the compound `COc1ccc(/C=C/C(=O)Nc2ccccc2C(=O)OCC(=O)NCC(C)(C)SN=O)cc1OC`, the melting point was in the range of 135 to 137 °C.
`CC(C)(C)Cc1nc2cc(CC(=O)O)ccc2o1` showed a melting point of 108 to 109 °C.
`Cc1cc(Br)cnc1CCCCNC1=NS(=O)(=O)N=C1N`: the melting point is 219 to 220 °C.
For `CC(=O)Nc1ccc(Cl)cc1NC(C)=O`, the melting point was 216 °C.
Turning to `CC(C)(C)C(NC(=O)c1ccc(Cl)cc1)NC(=NC#N)Nc1cccc(F)c1` (centres undefined), the melting point lay in the range of 167 to 170 °C.
The value for `CCCC1CC2=CC(=O)CCC2C2CCC3(C)C(OC(C)=O)CCC3C12` (centres undefined) was 97 to 100 °C; that for `C#Cc1cc(F)c(-n2c(=O)cc(C(F)(F)F)n(C)c2=O)cc1OCC` was 140 °C.
As to `CCOC(=O)[C@H](C)NC(=O)CCc1cc(Cl)ccc1C(=O)CCCNC(C)=O`, the melting point is 106 °C.
For `COCCN1CCN(CCc2ccc(Nc3ncc4c(n3)-c3ccccc3C(c3ccc(Cl)c(Cl)c3)C4)cc2)CC1` (centres undefined), the melting point lay in the range of 121 to 122 °C.
`C#Cc1ccc(C2(C3CCCCCCC3)CCCCCCC2)cc1` showed a melting point of 167 °C.
The compound `CCOC(=O)NOC(=O)c1ccc(C(=O)ONC(=O)OCC)cc1` yielded a melting point of 130 °C.
For the compound `CCN1CCCC1CNC(=O)c1cccc(N(C2CN(C(c3ccc(Cl)cc3)c3ccc(Cl)cc3)C2)S(C)(=O)=O)c1` (single isomer, unassigned; (+)), the melting point was 122 °C.
Compound `Cc1nnc2n1-c1ccc(C#CCn3ncc4ccccc43)cc1C(c1ccccc1F)=NC2` yielded a melting point of 148 to 151 °C.
In the case of `CN(Cc1ccccc1)C(=O)Cn1c(-c2ccc(Cl)cc2)nc2cccnc21`, the melting point fell in the range of 87 to 89 °C.
`CC(=O)Nc1ccc(C(=O)c2cc(-c3ccncc3)c(N3CCOCC3)s2)cc1` returned a melting point of 139 °C.
As to `COC(=O)c1cc(Cl)c(C(=O)OC)cc1Cl`, the melting point fell in the range of 134 to 135 °C.
With `COc1cc(OC)c2c(c1)Oc1cc(Br)ccc1CC2=O`, the melting point fell in the range of 95 to 103 °C.
The value for `O=C(O)CC(CCCCNS(=O)(=O)c1ccc(Cl)cc1)CCCc1cccnc1` (centres undefined) was 95 to 97 °C; that for `CCOC(=O)c1cn(C2CC2)c2c(Cl)c(F)ccc2c1=O` was 149 to 153 °C.
The result for `O=C(NC(Cc1ccc(OCc2ccc(C(F)(F)F)cc2)cc1)C(=O)O)c1cc2cc(-c3ccc(Cl)cc3)ccc2s1` (centres undefined) reads 198 °C; that for `Cc1cc(NC(=O)C(C)(O)COc2cccc(F)c2F)ccc1[N+](=O)[O-]` (centres undefined), 68 to 73 °C; that for `Cc1ccc(=O)n(-c2cc(-c3ccnc(Nc4cccc(Cl)c4)n3)ccn2)n1`, 187 to 189 °C.
The result for `CNC(=O)c1ccnc(NC(=O)N2CCC3(CCc4cc(F)ccc4O3)CC2)c1` reads 175 to 176 °C; that for `CC(OCc1cccnc1)C(=O)Nc1ccc(C(=O)Nc2ccccc2N)cc1` (centres undefined), 144 to 148 °C; that for `CCOC(=O)Cc1cccc2c(-c3ccc([N+](=O)[O-])cc3)nccc12`, 89.5 to 90.5 °C.
Turning to `COc1cc(C(=O)Cc2ccccc2)ccc1O`, the melting point was 107 to 108 °C.
`CC(C)(CO)COc1c(-c2ccc(S(C)(=O)=O)cc2)cnn(-c2ccc(F)c(F)c2)c1=O` displayed a melting point of 161 to 162 °C.
For `COc1ccccc1Cn1c(=O)c2c(N3CCN(C)CC3)cc(Cl)cc2n(Cc2ccccc2)c1=O`, the melting point was 91 to 96 °C.
The result for `CC(NC(=O)c1ccc(Cl)cc1)c1cccc2ccccc12` (centres undefined) reads 117 to 118 °C; that for `CC(=O)OCC(=O)N(C)C`, 52 to 53 °C.
